The source of these data is patent US11472812B2, “Anti-cancer compounds targeting Ral GTPases and methods of using the same” (The Regents of the University of Colorado, a body corporate, priority 2014, dated 2022).

In series [1] the test system is H2122 human lung cancer cells. Briefly: H2122 xenograft tumor growth. It counts as in vivo, nude mice. The following applies: i.p. daily except weekends, initiated 24 h after inoculation; RBC8 50 mg/kg/d; BQU57 and BQU85 5, 10, 20, and 50 mg/kg/d. On the procedure:
We next determined compound entry into tumor tissue. To do so, athymic nude mice (Ncr nu/nu; National Cancer Institute, Fredrick, Md.) were received at 5 to 6 weeks of age and were allowed to acclimate for 2 weeks in sterile micro isolator cages with constant temperature and humidity. Mice had free access to food and water. H2122 cells in log-phase growth were harvested on the day of use. Cells were suspended in un-supplemented RPMI 1640 medium and 0.1 mL (2×10^5 cells) was injected s.c. four sites per mice. For H358 xenografts, cells (5×10^6) were mixed with matrigel (20% final concentration) and 0.1 mL was inoculated s.c. per site. After cell inoculation, mice were monitored daily, weighed twice weekly and caliper measurements begun when tumors visible. Tumor volume was calculated by (L×W2)/2, where L is longer measurement of tumor and W is the smaller tumor measurement. Drug treatment started the day after inoculation. Compounds were dissolved in DMSO and injected i.p. daily except weekends at 10/20/50 mg/kg. […] The effect of the Ral inhibitors on xenograft tumor growth was then tested in nude mice. Mice were inoculated subcutaneously with H2122 human lung cancer cells and treated intraperitoneally with 50 mg/kg/d (except weekends) of RBC8 24 h post inoculation.

Series [2] deals with T1, RalB-GDP (Homo sapiens, UniProt P11234, Q72L).
T1 construct: made in house
T1 sequence (P11234 1-206 Q72L): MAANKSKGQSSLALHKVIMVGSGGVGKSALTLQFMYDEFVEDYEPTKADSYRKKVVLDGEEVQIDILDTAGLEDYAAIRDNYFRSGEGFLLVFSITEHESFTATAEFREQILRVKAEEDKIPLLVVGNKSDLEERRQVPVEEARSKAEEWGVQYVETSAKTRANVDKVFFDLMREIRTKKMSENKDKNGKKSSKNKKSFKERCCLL
Briefly: TROSY 15N-HSQC NMR chemical shift perturbation. The class given is binding. The conditions noted are these: 100 μM RalB-GDP, 100 μM compound. The text has this: (§1) To confirm the direct binding of the compounds to the target, we used TROSY ^15N-HSQC (Transverse Relaxation-Optimized Heteronuclear Single Quantum Coherence) NMR. RalB (Q72L mutant) in a pET16b (Novagen) plasmid was a kind gift from Dr. Darerca Owen (Cambridge University). RalB was purified with additional steps for loading with GDP or the non-hydrolyzable form of GTP, GMPNPP (GNP, Sigma-Aldrich). Uniform ^13C^15N-double labeled protein was produced in M9 media supplemented with ^15N-NH4Cl and ^13C-glucose. Samples were prepared for NMR in 50 mM sodium phosphate, pH 7.6, 100 mM NaCl and 1 mM MgCl2. All NMR experiments were recorded on an Agilent 900 MHz system at 25° C. Resonance assignments for the RalB-GNP complex were obtained from previously published studies deposited in Biological Magnetic Resonance Bank (BMRB, code: 15230). Chemical shift assignments of the RalB-GDP complex were obtained independently using HNCACB, CBCA(CO)NH and COCNH-TOCSY experiments. All NMR data was processed using NMRPipe and analyzed using CCPNMR analysis program. Assignment were obtained by automated assignment using PINE followed by manual verification. ^15N-HSQC experiments were used to monitor amide shifts from the RalB protein (100 μM) following the addition of compound reconstituted in deuterated DMSO. DMSO concentrations in the final sample were 0.5% or 1%; control samples were made with 0.5% or 1% deuterated DMSO and all samples containing compounds were compared to their corresponding […] control.
(§2) Because only the NMR structure of RalB in complex with GNP has been solved (PDB code 2KE5, BMRB entry 15230), we focused on this isoform. The ^15N-HSQC NMR spectrum of RalB-GDP and RalB-GNP were first determined and the chemical shift differences were analyzed. NMR spectra were then recorded in the presence of RBC8 or DMSO control. Binding of small molecules to the protein was monitored by the perturbation of ^15N-HSQC protein amide peaks.
(§3) A detailed NMR titration of the binding between BQU57 and RalB-GDP was carried out. […] In the absence of a crystal structure of RalB-GDP, a homology model was generated based on the sequence similarity to RalA-GDP and the residues that experienced chemical shift changes in the presence of drug was mapped onto this model (FIG. 3E).

The target of series [3] is T2, RalB-GNP (Homo sapiens, UniProt P11234, Q72L).
T2 construct: made in house
T2 sequence (P11234 1-206 Q72L): T1 sequence (P11234 1-206 Q72L)
Description: TROSY 15N-HSQC NMR chemical shift perturbation. The conditions noted are these: 100 μM RalB-GNP, 100 μM compound. It counts as binding.
Excerpt: as §1, §2, §3

Series [4] deals with H358 cells. Description: Soft agar colony formation (anchorage-independent growth). It counts as cell-based, human. The following applies: for further growth inhibition by drug after siRNA knockdown of RalA and RalB: H358 cells with siRNA knockdown of RalA and RalB; for growth inhibition effect with overexpression of constitutively active RalAG23V or RalBG23V: H358 cells, stable overexpression. The protocol: (§4) The effects of RBC8 and BQU57 on human lung cancer cell growth were evaluated. Because Ral is well-known for its role in anchorage independence, we carried out growth inhibition assays in soft agar. Four human lung cancer cells H2122, H358, H460 and Calu6 were used in a series of experiments to determine drug uptake, biologic specificity, and effect. To measure growth inhibition of human lung cancer cells under anchorage-independent conditions in soft agar, cells were seeded into 6-well plates (coated with a base layer made of 2 ml of 1% low-melting-point agarose) at 15,000 cells per well in 3 ml of 0.4% low-melting-point agarose containing various concentration of drug. Two to four weeks (depending on cell line) after incubation, cells were stained with 1 mg/ml MTT and colonies were counted under a microscope.
(§5) For the chemo-genetic experiments, siRNA treated cells were seeded into soft agar in the presence of various concentrations of drug. For the overexpression experiments, H358 cells stably overexpressing FLAG, FLAG-RalA^G23V or FLAG-RalB^G23V were generated and cells were subjected to the soft agar colony formation assay in the presence of drug. Attempts to stably overexpress FLAG-RalA^G23V or FLAG-RalB^G23V in H2122 cells were unsuccessful and the rescue experiments with H2122 were carried out 72 hrs after the transient transfection with FLAG, FLAG-RalA^G23V or FLAG-RalB^G23V using the soft agar colony formation assay in the presence of drug.

The test system of series [5] is H2122 cells. The description is as above. It counts as cell-based, human. The following applies: for further growth inhibition by drug after siRNA knockdown of RalA and RalB: H2122 cells with siRNA knockdown of RalA and RalB; for growth inhibition effect with overexpression of constitutively active RalAG23V or RalBG23V: H2122 cells, transient transfection. On the procedure:
as §4, §5

The nature of series [6]: Pharmacokinetics after single intraperitoneal injection. The class given is in vivo. The following applies: 50.0 mg/kg i.p., n = 3, nude mice. On the procedure: Inhibition of Ral activity and tumor growth were evaluated in human lung cancer mouse models. Pharmacokinetics (PK) of RBC8 and BQU57 were first analyzed in nude mice to test bioavailability. Following a single intraperitoneal injection (50 mg/Kg), blood samples were collected at time intervals from 0 to 5 h post-dose (9 time points).

Entries after “also recorded” stand apart in the source; their conditions may differ. Read-outs that look alike come from different tables or passages of the source.

What is called IC50 is the concentration that gives 50% inhibition. The term half-life denotes the time in which the quantity being followed falls by half. For `Cc1nn(C)c2c1C(c1ccc(C(F)(F)F)cc1)C(C#N)=C(N)O2` (centres unmarked) [BQU57, 6-amino-1,3-dimethyl-4-(4-(trifluoromethyl)phenyl)-1,4-dihydropyrano[2,3-c]pyrazole-5-carbonitrile], the “xenograft tumor growth inhibition” value in series [1] is “dose-dependent growth inhibition effects were observed; also recorded: inhibited xenograft tumor growth”. Moreover, the “binding to RalB-GDP by 15N-HSQC chemical shift changes” value in series [2] is reported as “binding to the predicted site”. The “binding to RalB-GNP by 15N-HSQC chemical shift changes” value in series [3] was “did not bind”. Moreover, the “further growth inhibition by drug after siRNA knockdown of RalA and RalB” value (“further growth inhibition by drug” below) in series [4] and in series [5] was “did not result in significant further inhibition” throughout. Moreover, the “growth inhibition effect with overexpression of constitutively active RalAG23V or RalBG23V” value (shortened to “growth inhibition effect”) in series [4] and in series [5] was “rescue” throughout. The IC50 in series [4] (Homo sapiens, NCI-H358, read-out: IC50 (50% reduction in colony number)) turned out to be 1300 nM; in series [5] (Homo sapiens, NCI-H2122, read-out: IC50 (50% reduction in colony number)), 2000 nM. The same molecule came in with a Co in series [6] of 41.6 ± 5.1 µM. The molecule also showed a half-life in series [6] (mouse, blood, ip) of 1.5 ± 0.11 h. The AUC(0-t) in series [6] (mouse, blood, ip, read-out: AUC0-5 hr) was 28600 ± 2100 ng·h/mL.

Consider `COc1ccc(OC)c(C2C(C#N)=C(N)Oc3n[nH]c(-c4ccc5ccccc5c4)c32)c1` (centres unmarked) [RBC8], for which the “xenograft tumor growth inhibition” value in series [1] is listed as “inhibited xenograft tumor growth”. The “binding to RalB-GDP by 15N-HSQC chemical shift changes” value in series [2] is reported as “showed changes in peak position of representative residues located in the allosteric site”. In addition, in series [3], the “binding to RalB-GNP by 15N-HSQC chemical shift changes” value is listed as “did not bind”. Also, the IC50 in series [4] (H358, soft agar, 2-4 weeks, read-out: IC50 (50% reduction in colony number)) is 3400 nM. Moreover, in series [4], the “further growth inhibition by drug” value is given as “did not result in significant further inhibition”; the “growth inhibition effect” value is recorded as “rescue”. For the same molecule, in series [5] (H2122, soft agar, 2-4 weeks, read-out: IC50 (50% reduction in colony number)), the IC50 amounted to 3500 nM. For the same molecule, in series [5], the “further growth inhibition by drug” value is listed as “did not result in significant further inhibition”; the “growth inhibition effect” value is “rescue”. In series [6], this molecule had a Co of 41.2 ± 4.2 µM and a T1/2 of 0.58 ± 0.26 h.
